From patent US9428790B2, “Simultaneous measurement of thrombin generation and clot strength in plasma and whole blood” (SYNAPSE B.V., priority 2012, dated 2016)

Tests used:
Format in all cases: biochemical
[1] = test system: fibrin; assay: Clot strength (viscosity) in tPA-triggered platelet-poor plasma on rotary rheometer; settings: 100 U/ml tPA, rotation 300/s, FIG. 8 lower panel
Protocol: (§1) Blood was obtained through venipuncture (1 volume tri-sodium citrate 0.13M to 9 volumes blood). Free flow or minimal suction should be employed, and vacuum containers avoided. Platelet poor plasma (PPP) was obtained by centrifugation of blood twice at 2630 g for 10 min.
(§2) Recombinant relipidated tissue factor (rTF) not containing polybrene or Ca^++ was from Dade Behring (Marburg, Germany). For each experiment, a fresh mixture of Tissue Factor (TF) and phospholipids vesicles (PL) (Avanti, Alabaster, Ala., USA) was prepared, resulting in a final concentration of 5 pM TF and 4 μM PL in Hepes buffer (20 mM, pH 7.35) containing 5 mg/l BSA (Sigma, A-7030). Recombinant tissue plasminogen activator (tPA) was obtained from Boehringer Ingelheim GmbH, Germany as actylase™. […] Upon splitting by thrombin, it releases the fluorescent rhodamine (Rho), which is measured by a 470 nm excitation and a 520 emission filter set. […] The by plasmin released fluorescent 7-Amino-4-methylcoumarin (AMC) is measured by a 365 nm excitation and a 430 nm emission filter set. […]
(§3) Using a signal substrate with a fluorescent leaving group, thrombin generation was measured via a fluorescence detector. The strength of the formed fibrin clot was monitored by an oscillating or rotating measuring system of a specially designed rheometer (Physica MCR 301, Anton Paar Germany GmbH, Ostfildern). […]

[2] = test system: fibrinolysis; assay: Clot strength (torque, oscillation mode) in triggered whole blood with tPA; settings: 300 U/ml tPA, oscillation 10 Hz, angle 1°, inset
Protocol: as §1, §2, §3

[3] = target: T1, plasmin (Homo sapiens, UniProt P00747); assay: Plasmin generation (raw fluorescence, H-Ala-Leu-Lys-AMC) in tPA-triggered platelet-poor plasma; settings: 100 U/ml tPA, rotation 300/s, FIG. 8 upper panel
T1 construct: from tissue; host or cells: platelet-poor plasma from citrated blood
Protocol: as §1
as §2, with “A-7030).” for “A-7030). Recombinant tissue plasminogen activator (tPA) was obtained from Boehringer Ingelheim GmbH, Germany as actylase™.”
A total of 700 μl (in case of plasma) or 800 μl (in case of blood) sample and substrate was added on the thermostated sample holder at 37° C. of the rheometer. […] Immediately after addition of the FluCa, the viscosity (or Torque in case of oscillation of the measuring system) and fluorescence were measured every 10 seconds and every second at 470/520 nm respectively. […]

[4] = test system: fibrin polymerization; assay: Clot strength (viscosity) in triggered platelet-poor plasma on rotary rheometer with Doolittle peptide; settings: 0.5 mM up to 2 mM peptide, shear rate 300/s, 5 pM TF, 4 μM PL, FIG. 6 upper panel
Protocol: as §1, §2, §3

[5] = test system: thrombin generation; assay: Thrombin generation (fluorogenic substrate, calibrated) in triggered platelet-poor plasma with Doolittle peptide; settings: 0.5 mM up to 2 mM peptide, shear rate 300/s, FIG. 6 lower panel
Protocol: as §1
as §2, with “A-7030).” for “A-7030). Recombinant tissue plasminogen activator (tPA) was obtained from Boehringer Ingelheim GmbH, Germany as actylase™.”
The calibrator, α2M-Thrombin complex (α2MT), was prepared in house as previously described. The concentration of α2M-Thrombin is measured by its ability to hydrolyze the chromogenic substrate S2238. […] After adding bovine antithrombin and heparin (LEO) this material was ready for use as a thrombin calibrator.
Using a signal substrate with a fluorescent leaving group, thrombin generation was measured via a fluorescence detector. […]

T1 sequence (P00747 581-810 limits assumed): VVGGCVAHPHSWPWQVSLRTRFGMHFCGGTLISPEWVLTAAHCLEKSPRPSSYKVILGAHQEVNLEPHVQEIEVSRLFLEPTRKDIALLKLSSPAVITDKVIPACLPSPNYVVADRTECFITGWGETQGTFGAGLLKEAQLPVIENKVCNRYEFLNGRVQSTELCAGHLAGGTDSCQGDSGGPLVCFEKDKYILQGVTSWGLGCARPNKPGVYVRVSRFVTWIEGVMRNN
T1 sequence (P00747 97-580 partner limits assumed): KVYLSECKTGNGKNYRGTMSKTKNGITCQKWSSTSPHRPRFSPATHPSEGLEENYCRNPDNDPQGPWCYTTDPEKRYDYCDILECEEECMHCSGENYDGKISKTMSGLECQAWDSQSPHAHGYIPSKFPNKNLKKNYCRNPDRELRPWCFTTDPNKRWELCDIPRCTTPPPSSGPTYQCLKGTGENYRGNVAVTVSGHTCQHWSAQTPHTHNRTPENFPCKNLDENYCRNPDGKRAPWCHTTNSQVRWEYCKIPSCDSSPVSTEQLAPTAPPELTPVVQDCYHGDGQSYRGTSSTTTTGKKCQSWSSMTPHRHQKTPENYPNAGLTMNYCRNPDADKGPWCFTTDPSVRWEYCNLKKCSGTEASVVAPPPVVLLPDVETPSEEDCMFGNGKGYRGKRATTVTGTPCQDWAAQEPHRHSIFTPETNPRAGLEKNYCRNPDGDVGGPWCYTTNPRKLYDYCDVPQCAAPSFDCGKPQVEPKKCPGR

In the case of “tPA: Recombinant tissue plasminogen activator (tPA) obtained from Boehringer Ingelheim GmbH as actylase™”, the “viscosity (degradation of fibrin)” value [1] is reported as “decrease in viscosity”, the “fibrinolysis (torque)” value [2] is reported as “fibrinolysis could be followed” and the “plasmin generation (raw fluorescence)” value [3] is reported as “activation of plasmin”.

“Gly-Pro-Arg-Pro (GPRP; printed: Gly-Pro-Arg-Pro) [Doolittle peptide]” was tested, and the “viscosity of the sample compared to the control sample” value [4] was “significantly decreased the viscosity” and the “effect on the thrombin generation” value [5] was “minimal”.
